Data as given in publication PMC12226405 (Aging Medicine, 2025).

Columns and labels:
lumbar spine (L2–L4) BMD = test system: lumbar spine (L2–L4) BMD; parameters: method as in PMID 31243480; conditions: study of biosimilar approved in Japan; cited from earlier work
[1] = test system: serum P1NP (procollagen type 1 N terminal propeptide); assay: Change from baseline in serum P1NP (bone turnover marker); type: in vivo, human; conditions: mITT population; 20 μg s.c. once daily
Experimental: (§1) All participants were provided with daily oral supplementation of 1000 mg of calcium and 500 IU of vitamin D3.
(§2) The primary endpoint of the study was the percent change in BMD of the lumbar spine and proximal femur, assessed using dual‐energy X‐ray absorptiometry (DXA) from baseline to Weeks 24 and 48. All DXA measurements were analyzed centrally, and the results were not disclosed to individual study centers to ensure unbiased interpretation. Secondary endpoints included the change from baseline in the pharmacodynamic parameter serum P1NP (procollagen type 1 N terminal propeptide), which was assessed at randomization and Weeks 12, 24, and 48. […] Serum biochemistry analyses were performed at baseline and at Weeks 4, 12, 24, and 48.
(§3) The efficacy analysis was performed on all the subjects in mITT (modified intention‐to‐treat) and PP (per protocol) population. Any missing postbaseline data were imputed using the last observation carried forward (LOCF) procedure. For the analysis of change from baseline to Week 12 (for P1NP), Week 24, and Week 48, a regression model with percent change from baseline as the response variable and the stratification variable was used for randomization, and treatment as independent variables was fit to test the mean difference between the two treatments in percent change. Adjusted least square mean (LSM) and the standard error values along with the p value and the 95% confidence interval (CI) of the difference were presented.

[2] = Pharmacokinetic sub-study, plasma teriparatide on Day 1; type: in vivo, human; conditions: Day 1, 20 μg s.c., sampling to 240 min, noncompartmental, n = 15 per arm
Experimental: Pharmacokinetic (PK) assessments were performed on a subset of subjects who voluntarily consented to participate in an additional PK sub‐study alongside the main study. […] Blood samples for PK analysis were collected at the study site on Day 1 (Visit 2, i.e., the randomization visit) at specified time points: pre‐dose (within 30 min before the first investigational product [IP] administration) and at 5‐, 10‐, 20‐, 30‐, 45‐, 60‐, 90‐, 120‐, 180‐, and 240‐min post‐IP administration.
PK parameters (C max, AUC0–t , and T max) measured in plasma were calculated by noncompartmental methods, using Phoenix software for the PK population on Day 1. Descriptive statistics (number of subjects [n], mean, standard deviation, median, minimum, and maximum [range]) were calculated for all evaluable PK parameters by treatment group for the PK population.

[3] = test system: lumbar spine BMD in postmenopausal women with osteoporosis; assay: Percent change in lumbar spine BMD by DXA, phase III study; type: in vivo, human; conditions: for Percent change in lumbar spine BMD from baseline at Week 24, LSM ± SE / Percent change in lumbar spine BMD from baseline at Week 48, LSM ± SE: mITT population, LOCF, 20 μg s.c. once daily, DXA
Experimental: (§4) A multicenter, randomized, active‐controlled, double‐blind, parallel‐group phase III study was conducted between August 2018 and August 2020 at 17 sites in India. The study was conducted as per the principles and requirements of the Declaration of Helsinki (2013), and ICH‐GCP (E6‐R2, Step 4) guidelines along with the local regulatory requirements of Good Clinical Practices for Clinical Research in India (2004), ICMR guidelines for Biomedical Research on Human Subjects (2017) and New Drugs and Clinical Trial Rules, 2019 (CDSCO) and after approvals from respective Institutional Ethics Committees. The study was registered on the Clinical Trial Registry of India (CTRI/2018/05/014254).
(§5) After signing of the informed consent form, the subjects were screened to assess eligibility according to the study selection criteria. Postmenopausal women between the ages of 50–80 years with BMD T‐SCORE less than −2.5 at the lumbar spine or femoral neck were enrolled in the study.
as §1
(§6) Medications known to affect bone metabolism, such as bisphosphonates, raloxifene, and denosumab, as well as drugs associated with reduced bone density, including glucocorticoids, aromatase inhibitors, and tamoxifen, were prohibited during the study. Throughout the treatment period, data were collected for primary and secondary endpoints. BMD was evaluated using dual‐energy X‐ray absorptiometry (DXA) as part of the efficacy assessments. Laboratory samples were collected during the treatment phase to support efficacy and safety evaluations, and all laboratory analyses were conducted at a central laboratory.
as §2, §3

[4] = test system: femoral neck BMD in postmenopausal women with osteoporosis; assay: Percent change in femoral neck BMD by DXA, phase III study; type: in vivo, human; conditions: for percent change in femoral neck BMD from baseline to 48 weeks (LSM ± SE): as given in the abstract, population not given; for percent change in femoral neck BMD from baseline to 48 weeks (LSM ± SE) / Percent change in femoral neck BMD from baseline at Week 24, LSM ± SE / Percent change in femoral neck BMD from baseline at Week 48, LSM ± SE: 20 μg s.c. once daily; for Percent change in femoral neck BMD from baseline at Week 24, LSM ± SE / Percent change in femoral neck BMD from baseline at Week 48, LSM ± SE: mITT population, LOCF, DXA
Experimental: as §4, §5, §1, §6, §2, §3

[5] = parameters: method as in PMID 31243480; conditions: Fracture Prevention Trial; 20 μg; cited from earlier work
femoral neck BMD = test system: femoral neck BMD; parameters: method as in PMID 11346808; conditions: Fracture Prevention Trial; after 2 years of 20 μg daily; cited from earlier work
lumbar spine BMD = test system: lumbar spine BMD; parameters: method as in PMID 11346808; conditions: Fracture Prevention Trial; after 2 years of 20 μg daily; cited from earlier work
[6] = listed as Reference teriparatide (R)
[7] = listed as Proposed biosimilar teriparatide (T)
[8] = biosimilar versus reference teriparatide, mITT
[9] = versus reference teriparatide, Week 24 and Week 48, mITT

Row | Substance | percent change from baseline to 52 weeks in lumbar spine (L2–L4) BMD (mean ± SE) (lumbar spine (L2–L4) BMD) | Serum P1NP concentration, change from baseline to Week 12 (LSM ± SE) [1] | Serum P1NP concentration, change from baseline to Week 24 (LSM ± SE) [1] | Serum P1NP concentration, change from baseline to Week 48 (LSM ± SE) [1] | Percent change in lumbar spine BMD from baseline at Week 24, LSM ± SE [3] | Percent change in lumbar spine BMD from baseline at Week 48, LSM ± SE [3] | percent change in femoral neck BMD from baseline to 48 weeks (LSM ± SE) [4] | Percent change in femoral neck BMD from baseline at Week 24, LSM ± SE [4] | Percent change in femoral neck BMD from baseline at Week 48, LSM ± SE [4] | further results
1 | RGB‐10: proposed biosimilar teriparatide approved in Japan | 8.94% ± 6.19% | – | – | – | – | – | – | – | – | –
2 | teriparatide [Reference teriparatide, reference compound] | 9.65% ± 6.22% | 21.95 ± 6.02 | 51.07 ± 9.63 | 34.30 ± 9.98 | 7.57 ± 1.13% | 9.22 ± 1.34% | 2.50% ± 1.20 | 1.79 ± 1.07% | 3.86 ± 1.24 (p = 0.024) % | AUC(0–t), geometric least squares mean [2, 6]: 6387.59 min; C max, geometric least squares mean [2, 6]: 0.10589 ng/mL
3 | teriparatide | – | – | – | – | – | – | – | – | – | TEAE dizziness [5]: 9%; TEAE leg cramps [5]: 3%; percentage increase in BMD at the femoral neck (mean ± SE) (femoral neck BMD): 2.8 ± 5.7%; percentage increase in BMD at the lumbar spine (mean ± SE) (lumbar spine BMD): 9.7 ± 7.4%
4 | teriparatide [Biosimilar teriparatide] | – | 24.38 ± 4.44 | 33.05 ± 7.00 | 48.52 ± 7.24 | 7.16 ± 0.82% | 8.46 ± 0.94% | 3.94% ± 0.83 | 3.37 ± 0.78% | 4.03 ± 0.96 (p = 0.003) % | AUC(0–t), geometric least squares mean [2, 7]: 6132.45 min; C max, geometric least squares mean [2, 7]: 0.10879 ng/mL; estimated between-group difference (95% CI), lumbar spine BMD percent change to 48 weeks ([3]; abstract, biosimilar versus reference, noninferiority margin −2.43%): −0.56%; LSM difference (95% CI), lumbar spine BMD percent change at Week 24 [3, 8]: −0.410 (−3.191, 2.372); LSM difference (95% CI), lumbar spine BMD percent change at Week 48 [3, 8]: −0.754 (−4.011, 2.502); noninferiority in lumbar spine BMD percentage change [3, 9]: noninferiority; estimated between-group difference (95% CI), femoral neck BMD percent change to 48 weeks ([4]; abstract, biosimilar versus reference, noninferiority margin −1.44%): 1.44%; LSM difference (95% CI), femoral neck BMD percent change at Week 24 [4, 8]: 1.576 (−1.048, 4.199); LSM difference (95% CI), femoral neck BMD percent change at Week 48 [4, 8]: 0.173 (−3.146, 3.493); noninferiority in femoral neck BMD percentage change [4, 9]: noninferiority
